How the values were obtained:
[1] = test system: JWA^IEC-ko mice; assay: X-ray-induced intestinal injury in intestinal epithelial JWA-knockout mice (Example 12); format: in vivo; conditions: JAC4 10 mg/kg daily, ABI 10 Gy
From the text: The Model Animal Research Institute of Nanjing University was commissioned to conduct the construction of JWA^flox/+ A129 mice and embryo cryopreservation, preservation, and thawing. These mice were bred with wild-type C57/BL6 mice for over six generations to give mice of C57/BL6 background. Villin-cre mice, provided by Shanghai Model Organisms Center, Inc., were C57/BL6 mice. The JWA-knockout mice (JWA^ko) and their littermate control (JWA^wt) counterparts were derived from an in-house conservation breed. The JWA^flox/flox mice were bred from the JWA^flox/+ mice. The intestinal epithelial JWA-knockout mice (JWA^IEC-ko) and control group (JWA^IEC-wt) were obtained through breeding JWA^flex/flex mice with Villin-cre mice.
The off-target model was established using JWA^IEC-ko mice and their JWA^IEC-wt littermates (8 weeks old), and the mice receiving radiation were divided into 4 groups: (1) a JWA^IEC-wt mice+vehicle group (n=5); (2) a JWA^IEC-wt mice+JAC4 group (n=5); (3) a JWA^IEC-ko mice+vehicle group (n=6); (4) a JWA^IEC-ko mice+JAC4 group (n=5). All mice were subjected to abdominal irradiation at 10 Gy. 7 days before radiation, 10 mg/kg JAC4 or an equal volume of vehicle (polyethylene glycol:ethanol:physiological saline=40:7.5:52.5, v/v/v) was administered intragastrically daily until the end of modeling. The blank control group (wild type, n=6) was not irradiated, and the modeling was terminated on day 4 after radiation.
To verify whether the protective effect of JAC4 on X-ray radiation-induced intestinal damage in mice is dependent on the expression of JWA, the present disclosure verified the targeting effect of JAC4 using JWA^IEC-ko mice.
JWA^IEC-ko and JWA^IEC-wt mice were treated daily with JAC4 (10 mg/kg) or an equal volume of vehicle (polyethylene glycol:ethanol:physiological saline=47.5:7.5:50, v/v/v), respectively, from 7 days before the ABI (10 Gy) exposure to 4 days after the exposure. […] Meanwhile, the contents of TNF-α and IL-1β were consistent with the results of FD4. […] As shown in panels E and F, ABI increased the activity of GSH-Px (530.8±207.8 vs. 406.2±197.9 U/mL) and decreased the activity of CAT (89.4 f 0.4 vs. 68.7±14.2 U/mL). JAC4 further enhanced the antioxidant enzymes in JWA^IEC-wt mice (815.1±203.9 vs. 530.8±207.8 U/mL and 85.9±8.2 vs. 68.7±14.2 U/mL; P<0.05, P<0.05). […] Intestinal tissues were isolated, and the expression of apoptotic molecules was detected by Western blot (FIG. 16J). In wild-type mice, compared with the control group, X-rays increased the expression of Bax and cleaved PARP1 in the small intestine.

[2] = test system: lung tissue; assay: Inflammation level in lung tissue of xenograft mice (RT-PCR, HE) (Example 21); format: in vivo
Method: After the modeling in Example 20 was completed, the inflammation level and DNA damage in the lung tissue were detected by the following specific procedures: 3 mice were randomly selected from each group to provide the lung tissue. About 20-30 mg of lung tissue was collected from each mouse in a centrifuge tube. The total RNA was isolated and extracted using the TRIzol reagent (Invitrogen) for RT-PCR (Reverse Transcription-Polymerase Chain Reaction) detection. The RNA was reversely transcribed into cDNA using a reverse transcription kit from Vazyme. Reaction system: 42° C., 2 min; 37° C., 15 min; 85° C., 5 s. The samples were preserved in a refrigerator at […] or −80° C. for later use. 30-35 PCR amplification cycles were performed. The data were analyzed by the ΔΔCt method using glyceraldehyde-3-phosphate dehydrogenase (GAPDH) as an internal standard and the AceQ qPCR SYBR Green Master Mix fluorescent quantitative PCR reagent from Vazyme on the 7900HT high throughput flash real-time fluorescent quantitative PCR system from Thermo Fisher Scientific for PCR assay. The results are shown in FIG. 29, with the following specific conditions: […]

[3] = JAC4+X-ray group relative to X-ray group

c1ccc(CSc2nnc(C3COc4ccccc4O3)o2)nc1 (centres unmarked) [JAC4]
enhancement of antioxidant enzymes (GSH-Px, CAT) [1]: not confirmed | plasma FD4 content [1]: 9192.8 ± 5573.2 ng/mL | plasma IL-1β [1]: 65.6 ± 3.3 ng/mL | plasma TNF-α [1]: 769.8 ± 112.3 ng/mL | crypt height ([1]; day 4): 53.0±3.0 μm | intestinal villus length ([1]; day 4): 150.6±8.4 μm | mRNA level of anti-inflammatory factor IL-10 in lung tissue [2, 3]: 2.91 folds | mRNA level of proinflammatory factor IL-1P in lung tissue [2, 3]: 0.43 folds | mRNA level of proinflammatory factor TGF-β1 in lung tissue [2, 3]: 0.71 folds | mRNA level of proinflammatory factor TNF-α in lung tissue [2, 3]: 0.63 folds | HE staining of lung tissues ([2]; JAC4 treatment in combination with X-ray therapy): reduced inflammatory cell infiltration

Source: patent publication US20250345318A1, “COMPOUND AND USE THEREOF IN PREVENTING OR TREATING RADIATION DAMAGE” (SIMCERE PHARMACEUTICAL CO., LTD., priority 2022, published 2025)
